Test results reported in patent publication US9839639B2, “Neprilysin inhibitors” (THERAVANCE BIOPHARMA R&D IP, LLC, priority 2014, dated 2017).

Assays:
[1] = biological target: T1, human NEP (Homo sapiens, UniProt P08473); assay: In vitro enzyme inhibition assay, inhibitor potency at human NEP; assay type: biochemical; settings: recombinant human NEP, fluorogenic peptide substrate 10 μM, 37° C.; values given as ranges
T1 construct: purchased R&D Systems, Minneapolis, Minn; 1182-ZN
Procedure: The inhibitory activities of compounds at human and rat neprilysin (EC 3.4.24.11; NEP) and human angiotensin converting enzyme (ACE) were determined using in vitro assays as described below.
Recombinant human NEP and recombinant human ACE were obtained commercially (R&D Systems, Minneapolis, Minn., catalog numbers 1182-ZN and 929-ZN, respectively). The fluorogenic peptide substrate Mca-D-Arg-Arg-Leu-Dap-(Dnp)-OH (Medeiros et al. (1997) Braz. J. Med. Biol. Res. 30:1157-62; Anaspec, San Jose, Calif.) and Abz-Phe-Arg-Lys(Dnp)-Pro-OH (Araujo et al. (2000) Biochemistry 39:8519-8525; Bachem, Torrance, Calif.) were used in the NEP and ACE assays respectively.
The assays were performed in 384-well white opaque plates at 37° C. using the fluorogenic peptide substrates at a concentration of 10 μM in Assay Buffer (NEP: 50 mM HEPES, pH 7.5, 100 mM NaCl, 0.01% polyethylene glycol sorbitan monolaurate (Tween-20), 10 μM ZnSO4; ACE: 50 mM HEPES, pH 7.5, 100 mM NaCl, 0.01% Tween-20, 1 μM ZnSO4).
Test compounds were assayed over the range of concentrations from 10 μM to 20 pM. Test compounds were added to the enzymes and incubated for 30 minute at 37° C. prior to initiating the reaction by the addition of substrate. Reactions were terminated after 20 minutes of incubation at 37° C. by the addition of glacial acetic acid to a final concentration of 3.6% (v/v).
Plates were read on a fluorometer with excitation and emission wavelengths set to 320 nm and 405 nm, respectively. Inhibition constants were obtained by nonlinear regression of the data using the equation (GraphPad Software, Inc., San Diego, Calif.): v=v0/[1+(I/K′)] where v is the reaction rate, v0 is the uninhibited reaction rate, I is the inhibitor concentration and K′ is the apparent inhibition constant.
Compounds of the invention were tested in this assay and found to have pKi values at human NEP as follows.

[2] = Rat PO cassette assay (oral bioavailability); assay type: in vivo; settings: plasma, male Sprague-Dawley rats, single oral gavage vs intravenous dose, 0.5 mg/kg, read-out: % F (oral bioavailability)
Excerpt: Oral bioavailability, or % F, is a measure of the percentage of a drug in an oral dose that actually reaches the systemic circulation. Compound losses can occur due to incomplete formulation dissolution, incomplete absorption due to compound insolubility or instability along the GI, or metabolism in the gut or across the gut wall. The fraction of the dose which reaches the hepatic portal vein must also then pass through the liver before reaching the systemic circulation. Compound metabolism, or “first-pass extraction,” can occur during this initial passage through the liver, and this is an additional potential source of compound loss. Oral bioavailability is calculated as the dose-normalized ratio of drug exposure after an oral dose to that after an intravenous dose, wherein the entire dose is delivered directly to the systemic circulation.
Each cassette study begins with 10 mM DMSO stock solutions of up to 5 different compounds. Typically, compounds are selected such no two compounds dosed in the same cassette have a molecular weight within 5 Da of each other. This simplifies subsequent bioanalysis. Appropriate volumes of each DMSO stock are added into a volume of vehicle (5% sodium bicarbonate, 5% dextrose in H2O) such that the final concentration of each compound is 0.25 mg/mL. Intravenous dosing solutions are sterile-filtered (0.2 μm) prior to dosing.
Pre-cannulated male Sprague-Dawley rats (3 per cassette per route) between 8 and 10 weeks of age were obtained from Harlan Laboratories (Indianapolis, Ind.). Rats received either a single oral gavage or a single intravenous (via lateral tail vein) dose (2 mL/kg) of the dosing solution. The final dose was 0.5 mg/kg. Serial blood samples were harvested via jugular vein cannula at 3 minutes, 15 minutes, 30 minutes, 1 hours, 2 hours, 4 hours, 6 hours, and 24 hours post-dose. Sampling was performed either manually or using automated blood samplers. Samples were collected into microtainer tubes containing EDTA as the anticoagulant and are processed to plasma by refrigerated centrifugation.
Plasma samples were extracted with 3 volumes of MeCN containing a suitable internal standard. Extracts were reconstituted into 3 volumes of water containing 1% formic acid, and analyzed via HPLC-coupled MS/MS. Plasma concentration-time data were analyzed using the Phoenix software (Pharsight Corp., St. Louis, Mo.) to calculate pharmacokinetic parameters.
Compounds of the invention of particular interest were those having a % F>10%, when tested in this assay.

T1 sequence (P08473 52-750 limits assumed): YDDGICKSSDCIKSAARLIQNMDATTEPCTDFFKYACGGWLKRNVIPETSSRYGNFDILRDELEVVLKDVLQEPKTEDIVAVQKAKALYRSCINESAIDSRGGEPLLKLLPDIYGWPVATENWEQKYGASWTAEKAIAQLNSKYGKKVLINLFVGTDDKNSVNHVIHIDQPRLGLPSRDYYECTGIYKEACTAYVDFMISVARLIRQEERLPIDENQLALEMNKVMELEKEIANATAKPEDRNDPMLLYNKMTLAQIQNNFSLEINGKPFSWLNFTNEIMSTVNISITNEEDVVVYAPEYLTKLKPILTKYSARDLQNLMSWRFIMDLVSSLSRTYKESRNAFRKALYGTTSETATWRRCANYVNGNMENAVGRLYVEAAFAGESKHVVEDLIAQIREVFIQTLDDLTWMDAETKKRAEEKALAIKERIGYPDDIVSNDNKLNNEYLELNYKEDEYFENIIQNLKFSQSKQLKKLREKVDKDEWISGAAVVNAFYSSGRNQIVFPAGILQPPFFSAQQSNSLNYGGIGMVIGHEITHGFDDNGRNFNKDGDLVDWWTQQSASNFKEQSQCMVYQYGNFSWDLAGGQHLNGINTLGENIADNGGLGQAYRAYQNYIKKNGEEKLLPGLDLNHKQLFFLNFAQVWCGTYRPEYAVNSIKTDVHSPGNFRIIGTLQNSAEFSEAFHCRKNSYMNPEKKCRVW

SMILES	Ki [1] [nM]	bioavailability [2] [%]
CCCC(CO)(C[C@@H](Cc1ccc(-c2cc(Cl)ccc2F)cc1)NC(=O)c1cnn[nH]1)C(=O)O (single isomer, unassigned) [Example 15a]	≤ 1	> 10
CCOC[C@](C)(C[C@@H](Cc1ccc(-c2cc(Cl)ccc2F)cc1)NC(=O)c1n[nH]nc1C)C(=O)O [Example 11-4, (2S,4R)-5-(5′-Chloro-2′-fluorobiphenyl-4-yl)-2-ethoxymethyl-2-methyl-4-[(5-methyl-2H-[1,2,3]triazole-4-carbonyl)amino]pentanoic acid]	1.26 to 3.16	> 10
CCOC[C@](C)(C[C@@H](Cc1ccc(-c2cccc(Cl)c2)cc1)NC(=O)c1noc(=O)[nH]1)C(=O)O [Example 9, (2S,4R)-5-(3′-Chlorobiphenyl-4-yl)-2-ethoxymethyl-2-methyl-4-[(5-oxo-4,5-dihydro-[1,2,4]oxadiazole-3-carbonyl)amino]pentanoic Acid]	≤ 1	> 10
O=C(N[C@H](Cc1ccc(-c2cc(Cl)ccc2F)cc1)CC1(C(=O)O)CCOC1)c1cnn[nH]1 (single isomer, unassigned) [Example 20a]	≤ 1	> 10
COC[C@](C)(C[C@@H](Cc1ccc(-c2cc(Cl)ccc2F)cc1)NC(=O)c1ccc(C(F)(F)F)cn1)C(=O)O [Example 8-5, (2S,4R)-5-(5′-Chloro-2′-fluorobiphenyl-4-yl)-2-methoxymethyl-2-methyl-4-[(5-trifluoromethylpyridine-2-carbonyl)amino]pentanoic acid]	≤ 1	
NCCC(CO)(C[C@@H](Cc1ccc(-c2cc(Cl)ccc2F)cc1)NC(=O)c1cnn[nH]1)C(=O)O (stereo partly drawn) [Example 17, (R)-2-(2-Amino-ethyl)-5-(5′-chloro-2′-fluorobiphenyl-4-yl)-2-hydroxymethyl-4-[(3H-[1,2,3]triazole-4-carbonyl)amino]pentanoic Acid]	1.26 to 3.16	
CCOC[C@](C)(C[C@@H](Cc1ccc(-c2cc(Cl)ccc2F)cc1)NC(=O)c1ncco1)C(=O)O [Example 11-1, (2S,4R)-5-(5′-Chloro-2′-fluorobiphenyl-4-yl)-2-ethoxymethyl-2-methyl-4-[(oxazole-2-carbonyl)amino]pentanoic acid]	1.26 to 3.16	
CC(=O)c1cc(C(=O)N[C@H](Cc2ccc(-c3cc(Cl)ccc3F)cc2)C[C@@](C)(CN)C(=O)O)[nH]n1 [Example 4-1, (2S,4R)-4-[(5-Acetyl-2H-pyrazole-3-carbonyl)-amino]-2-aminomethyl-5-(5′-chloro-2′-fluorobiphenyl-4-yl)-2-methylpentanoic acid]	3.98 to 10	
O=C(N[C@H](Cc1ccc(-c2cc(Cl)ccc2F)cc1)CC1(C(=O)O)CCNC1)c1cnn[nH]1 (single isomer, unassigned) [Example 21a]	≤ 1	
CCC(CO)(C[C@@H](Cc1ccc(-c2cc(Cl)ccc2F)cc1)NC(=O)c1cnn[nH]1)C(=O)O (single isomer, unassigned) [Example 14a]	≤ 1	> 10
